Measurements: ChEMBL document CHEMBL1201862, “PubChem BioAssay data set” (2004)
Calls of active or inactive are those of the source.

Key:
[1] = biological target: Polyadenylate-binding protein 1 (Homo sapiens, UniProt P11940); test: PABP1 MLLE–PAM2 interaction inhibitors, dose response, miRNA deadenylation inhibitor project, biochemical, fluorescence polarization, Cy5-PAM2 peptide, secondary (AID 602260); assay type: functional; details: read-out: IC50_Mean
[2] = biological target: T1, DNA repair protein RAD52 homolog (Homo sapiens, UniProt P43351); assay type: functional, biochemical
T1 sequence (P43351 whole entry): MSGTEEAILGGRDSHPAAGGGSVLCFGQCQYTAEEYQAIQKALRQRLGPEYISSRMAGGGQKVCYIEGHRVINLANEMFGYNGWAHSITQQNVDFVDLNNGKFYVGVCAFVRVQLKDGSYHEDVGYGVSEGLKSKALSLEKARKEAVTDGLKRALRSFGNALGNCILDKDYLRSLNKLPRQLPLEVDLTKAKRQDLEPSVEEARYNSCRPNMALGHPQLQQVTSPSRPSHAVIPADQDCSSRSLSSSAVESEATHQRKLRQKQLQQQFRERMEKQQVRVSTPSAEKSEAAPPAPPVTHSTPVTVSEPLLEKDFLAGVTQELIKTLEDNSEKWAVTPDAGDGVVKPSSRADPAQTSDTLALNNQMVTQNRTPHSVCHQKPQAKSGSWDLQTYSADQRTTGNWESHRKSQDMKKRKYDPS

[3] = biological target: Caspase-7 (Homo sapiens, UniProt P55210); test: human caspase-7 inhibitors, dose response, selectivity assay for caspase-6 inhibitor project, biochemical, DEVD-R110 fluorescence, cherry-pick (AID 743295)
Sequence of Caspase-7 (P55210 24-198 limits assumed): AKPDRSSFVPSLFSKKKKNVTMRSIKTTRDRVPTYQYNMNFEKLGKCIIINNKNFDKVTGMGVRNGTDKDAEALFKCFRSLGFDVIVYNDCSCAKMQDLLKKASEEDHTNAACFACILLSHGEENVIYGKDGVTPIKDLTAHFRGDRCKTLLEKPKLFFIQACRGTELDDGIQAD
Sequence of Caspase-7 (P55210 207-303 limits assumed): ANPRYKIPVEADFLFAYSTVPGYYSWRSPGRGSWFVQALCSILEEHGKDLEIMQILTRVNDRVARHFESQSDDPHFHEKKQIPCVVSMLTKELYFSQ

[4] = biological target: Caspase-8 (Homo sapiens, UniProt Q14790); test: caspase-8 inhibition counter-screen, dose response, selectivity assay for caspase-6 inhibitor project, biochemical, Z-IETD-R110 fluorescence, cherry-picked samples (AID 743294)
Sequence of Caspase-8 (Q14790 217-374 limits assumed): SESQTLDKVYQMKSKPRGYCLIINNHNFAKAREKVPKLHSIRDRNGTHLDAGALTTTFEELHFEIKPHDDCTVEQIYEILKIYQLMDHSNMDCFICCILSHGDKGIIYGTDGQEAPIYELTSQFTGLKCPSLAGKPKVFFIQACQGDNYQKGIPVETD
Sequence of Caspase-8 (Q14790 385-479 limits assumed): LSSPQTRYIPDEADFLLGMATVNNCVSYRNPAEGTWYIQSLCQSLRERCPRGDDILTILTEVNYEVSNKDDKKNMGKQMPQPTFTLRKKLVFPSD

Sequence of Polyadenylate-binding protein 1 (P11940 whole entry): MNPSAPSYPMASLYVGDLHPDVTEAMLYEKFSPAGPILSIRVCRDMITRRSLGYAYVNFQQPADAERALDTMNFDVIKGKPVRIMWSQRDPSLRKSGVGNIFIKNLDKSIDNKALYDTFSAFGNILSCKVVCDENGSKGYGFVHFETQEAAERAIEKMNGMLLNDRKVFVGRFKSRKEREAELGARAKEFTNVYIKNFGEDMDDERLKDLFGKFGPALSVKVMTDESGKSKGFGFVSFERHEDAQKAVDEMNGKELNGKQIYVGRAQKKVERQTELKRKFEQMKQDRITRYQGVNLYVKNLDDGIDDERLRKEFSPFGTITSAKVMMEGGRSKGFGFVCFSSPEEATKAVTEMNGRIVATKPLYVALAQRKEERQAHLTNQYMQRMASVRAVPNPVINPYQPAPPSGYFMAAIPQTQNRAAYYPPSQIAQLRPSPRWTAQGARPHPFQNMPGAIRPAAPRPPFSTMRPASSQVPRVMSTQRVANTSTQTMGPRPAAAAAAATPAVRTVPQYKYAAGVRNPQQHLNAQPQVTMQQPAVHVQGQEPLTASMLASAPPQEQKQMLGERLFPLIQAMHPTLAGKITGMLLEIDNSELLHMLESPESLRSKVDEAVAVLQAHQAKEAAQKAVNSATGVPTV

In the case of COC1=C(c2ccccc2)C(=O)c2ccccc2C1=O, the IC50 [1] is reported as > 66 µM (inactive).
For COc1cc2c(cc1OC)-c1c(OC)c(OC)cc3c1[C@H](C2)N(C)CC3, the AC50 [2] was 2.86 µM (active), the AC50 [3] was 1.77 µM (active) and the AC50 [4] was 48.1 µM (active).
